pIC50: −log10 of the molar value. Like-named read-outs stand apart in the source and are kept apart here. Residues, ends and D or L forms follow the SMILES beside them. No end group written: not given here.

The target of one experiment is HLA-DR2 (DRB1*0201). In words: HLA-DR-peptide binding assay. Also noted: species or system human.
Another experiment has as its target HLA-DR7 (DRB1*0701) (Homo sapiens, UniProt P01903+P01911, A100R/A102G/A103Q/D57E/D86V/E43K/F76Y/K127E/L162R/M171V/P40G/Q125H/Q99D/R33Q/R42Y/R54Q/S133A/S66F/T210M/V115G/Y107V/Y59L/Y89S). The conditions noted are these: read-out: Binding DR7, IC50.
A further experiment deals with HLA-DR4 (DRB*0401). Put plainly: HLA-DR-peptide binding assay. Also noted: species or system human.
The next experiment addresses HLA-DR3 (DRB*0301). Put plainly: HLA-DR-peptide binding assay. Also noted: species or system human.
For a further experiment, the target named is T1, HLA-DR1 (DRB*0101) (Homo sapiens, UniProt P01903+P01911, A100R/D57E/F55L/F60I/F76Y/I96L/L162R/M171V/P40L/Q125E/R42F/V115G/Y59C).
T1 construct: endogenous in cells; host or cells: LG2.1 B-lymphoblastic cell line, homozygous for HLA-DR
In words: biochemical. The experiment is classed as binding.

In the next experiment the test system is HLA-DR 1, 2, 3, 4 and 7. In words: HLA-DR-peptide binding assay, summary over the molecules tested. More on the design: species or system human. The settings on record: E7 peptides tested on HLA-DR 1, 2, 3, 4 and 7. As to the method:
The analysis of peptide binding to purified DR molecules was performed using N-terminally fluorescence-labelled standard peptides.

For experiment [1], the system named is HPV16 E2-specific Th-clones. In words: HPV16 E2-specific Th-clones: peptide recognition. Format: cell-based, human. The settings on record: clones from long-term E2 peptide stimulated healthy donor PBMC. As to the method: Long-term HPV16 E2-specific T-cell cultures and Th-clones were established according to previously described procedures (van der Burg et al. 1999). Briefly, PBMC from healthy HLA-typed donors were stimulated in vitro with the following HPV16 E2 peptides (E2271-300+E2286-315, E2301-330+E2316-345, E2331-365). 15×10^6 PBMC were seeded in 25 cm^2 culture flasks (Nalge Nunc, USA) in 6 ml IMDM supplemented with 10% autologous serum. Peptides were added at a concentration of 5 μg/ml. At day 7.15×10^6 PBMC were added, together with fresh medium and peptides. At day 14 and 21 viable T cells were harvested from the cultures, counted and restimulated with an equal amount of autologous irradiated PBMC and peptide (5 μg/ml). T-cell growth factor (Biotest, Dreieich, Germany) was added 2 days after restimulation at a final concentration of 10%. The T-cell cultures were tested for peptide recognition by proliferation assay at day 28. Peptide-specific T-cell cultures were cloned by limiting dilution and T-cell clones were subsequently tested for the recognition of E2-peptide and -protein-pulsed APC.
Specificity of the Th clones was analysed as described previously (Van der Burg et al. 1999). […] For measurement of proliferation, cultures were pulsed with […] [^3H] thymidine (5 μCi/mM, Amersham, UK) per well for 18 hours. Plates were harvested with a Micro cell Harvester (Skatron, Norway). Filters were packed in plastic covers containing 10 ml of scintillation fluid and subsequently counted on a 1205 Betaplate counter (Wallac, Turku, Finland). HLA-class II blocking experiments were performed using murine monoclonal antibodies: anti-DQ SPV. L3, anti-DR B8. 11.2, and anti-DP B7/21. Supernatants of the proliferation assays were harvested 24 hrs after incubation and analysed for the presence of IFN-γ by ELISA (van der Burg et al., 1999).

The mark [2] stands for this setting: HPV16-E7 22-mer peptides, >70 indicates undetectable binding, read-out: Binding DR2, IC50.
[3] abbreviates: HPV16-E7 22-mer peptides, >70 indicates undetectable binding, read-out: Binding DR4, IC50.
[4] abbreviates: HPV16-E7 22-mer peptides, >70 indicates undetectable binding, read-out: Binding DR3, IC50.

Consider DLYCYEQLNDSSEEEDEIDGPA [E7 21-42], for which the pIC50 was 4.92 on HLA-DR2 (DRB1*0201) (setting [2]); less than 4.15 at HLA-DR7 (DRB1*0701); less than 4.15 on HLA-DR4 (DRB*0401) (setting [3]); less than 4.15 on HLA-DR3 (DRB*0301) (setting [4]); less than 4.15 at HLA-DR1 (DRB*0101) (read-out: Binding DR1, IC50).

Consider `CC[C@H](C)[C@H](NC(=O)CNC(=O)[C@H](CC(C)C)NC(=O)[C@@H](NC(=O)CNC(=O)[C@H](CCSC)NC(=O)[C@H](CC(C)C)NC(=O)[C@H](CC(C)C)NC(=O)[C@H](CC(=O)O)NC(=O)[C@H](CCC(=O)O)NC(=O)[C@H](CC(C)C)NC(=O)[C@@H](NC(=O)[C@@H](N)CCCNC(=N)N)[C@@H](C)O)[C@@H](C)O)C(=O)N[C@H](C(=O)N[C@@H](CS)C(=O)N1CCC[C@H]1C(=O)N[C@H](C(=O)N[C@@H](CS)C(=O)N[C@@H](CO)C(=O)N[C@@H](CCC(N)=O)C(=O)N[C@@H](CCCCN)C(=O)N1CCC[C@H]1C(=O)O)[C@@H](C)CC)C(C)C` [E7 77-98] (H-RTLEDLLMGTLGIVCPICSQKP-OH; N-terminus and C-terminus assumed), for which the pIC50 at HLA-DR2 (DRB1*0201) (setting [2]) is 4.66; at HLA-DR7 (DRB1*0701) (HPV16-E7 22-mer peptides, >70 indicates undetectable binding), 6.05; at HLA-DR4 (DRB*0401) (setting [3]), less than 4.15; at HLA-DR3 (DRB*0301) (setting [4]), less than 4.15; on HLA-DR1 (DRB*0101) (read-out: Binding DR1, IC50, HPV16-E7 22-mer peptides, >70 indicates undetectable binding) it was 4.34. The HLA-DR molecules bound result with HLA-DR 1, 2, 3, 4 and 7 is “bound to DR1, 2 and DR7”.

In the case of “LRYRFKKHCTLYTAVSSTWHWTGHNVKHKS [E2 301-330]”, the “recognition by E2-specific CD4+ Th clones and HLA restriction” value (“recognition” below) in experiment [1] is “both Th-clones recognized”. Further, the pIC50 was 5.10 at HLA-DR2 (DRB1*0201) (HPV16-E2 peptides, >70 represents undetectable binding, read-out: Binding affinity DR2, IC50); 5.00 at HLA-DR4 (DRB*0401) (HPV16-E2 peptides, >70 represents undetectable binding, read-out: Binding affinity DR4, IC50); less than 4.15 on HLA-DR3 (DRB*0301) (HPV16-E2 peptides, >70 represents undetectable binding, read-out: Binding affinity DR3, IC50); 5.22 at HLA-DR1 (DRB*0101) (HPV16-E2 peptides, >70 represents undetectable binding, read-out: Binding affinity DR1, IC50).

“E2 51-70: Th epitope peptide, amino acids 51-70 of HPV16 E2 (FKHINHQVVPTLAVSKNKAL)”: the “recognition” value in experiment [1] is “in a HLA-DR4 restricted manner”.

As to `CSCC[C@H](NC(=O)[C@@H](N)Cc1ccc(O)cc1)C(=O)N[C@@H](CC(C)C)C(=O)N[C@@H](CC(=O)O)C(=O)N[C@@H](CC(C)C)C(=O)N[C@@H](CCC(N)=O)C(=O)N1CCC[C@H]1C(=O)N[C@@H](CCC(=O)O)C(=O)N[C@H](C(=O)N[C@H](C(=O)N[C@@H](CC(=O)O)C(=O)N[C@@H](CC(C)C)C(=O)N[C@@H](Cc1ccc(O)cc1)C(=O)N[C@@H](CS)C(=O)N[C@@H](Cc1ccc(O)cc1)C(=O)N[C@@H](CCC(=O)O)C(=O)N[C@@H](CCC(N)=O)C(=O)N[C@@H](CC(C)C)C(=O)N[C@@H](CC(N)=O)C(=O)N[C@@H](CC(=O)O)C(=O)N[C@@H](CO)C(=O)N[C@@H](CO)C(=O)O)[C@@H](C)O)[C@@H](C)O` [E7 11-32], the pIC50 is less than 4.15 at HLA-DR2 (DRB1*0201) (setting [2]); less than 4.15 at HLA-DR7 (DRB1*0701); less than 4.15 at HLA-DR4 (DRB*0401) (setting [3]); 4.30 at HLA-DR3 (DRB*0301) (setting [4]); less than 4.15 at HLA-DR1 (DRB*0101) (read-out: Binding DR1, IC50).

On to “E2 351-365: Th epitope peptide, amino acids 351-365 of HPV16 E2 (KIPKTITVSTGFMSI)”, for which the “recognition” value in experiment [1] is reported as “in a DR1-restricted manner”.

As to `CSCC[C@H](NC(=O)[C@H](Cc1ccc(O)cc1)NC(=O)[C@H](CCC(=O)O)NC(=O)[C@H](Cc1c[nH]cn1)NC(=O)[C@H](CC(C)C)NC(=O)[C@@H](NC(=O)[C@@H]1CCCN1C(=O)[C@@H](NC(=O)[C@H](CC(=O)O)NC(=O)CNC(=O)[C@H](Cc1c[nH]cn1)NC(=O)[C@@H](N)CCSC)[C@@H](C)O)[C@@H](C)O)C(=O)N[C@@H](CC(C)C)C(=O)N[C@@H](CC(=O)O)C(=O)N[C@@H](CC(C)C)C(=O)N[C@@H](CCC(N)=O)C(=O)N1CCC[C@H]1C(=O)N[C@@H](CCC(=O)O)C(=O)N[C@H](C(=O)N[C@H](C(=O)N[C@@H](CC(=O)O)C(=O)N[C@@H](CC(C)C)C(=O)O)[C@@H](C)O)[C@@H](C)O` [E7 1-22], the pIC50 on HLA-DR2 (DRB1*0201) (setting [2]) is 5.00; on HLA-DR7 (DRB1*0701), 5.15; at HLA-DR4 (DRB*0401) (setting [3]) it was 4.52; on HLA-DR3 (DRB*0301) (setting [4]), 6.10; at HLA-DR1 (DRB*0101) (read-out: Binding DR1, IC50) it was less than 4.15. Further, in the experiment with HLA-DR 1, 2, 3, 4 and 7, the HLA-DR molecules bound entry is “bound to HLA DR2, 3, 4 and 7”.

For the molecule `CC[C@H](C)[C@H](NC(=O)[C@H](CC(N)=O)NC(=O)[C@H](Cc1ccc(O)cc1)NC(=O)[C@@H](N)Cc1c[nH]cn1)C(=O)N[C@H](C(=O)N[C@H](C(=O)N[C@@H](Cc1ccccc1)C(=O)N[C@@H](CS)C(=O)N[C@@H](CS)C(=O)N[C@@H](CCCCN)C(=O)N[C@@H](CS)C(=O)N[C@@H](CC(=O)O)C(=O)N[C@@H](CO)C(=O)N[C@H](C(=O)N[C@@H](CC(C)C)C(=O)N[C@@H](CCCNC(=N)N)C(=O)N[C@@H](CC(C)C)C(=O)N[C@@H](CS)C(=O)N[C@H](C(=O)N[C@@H](CCC(N)=O)C(=O)N[C@@H](CO)C(=O)N[C@H](C(=O)O)[C@@H](C)O)C(C)C)[C@@H](C)O)[C@@H](C)O)C(C)C` [E7 51-72] (H-HYNIVTFCCKCDSTLRLCVQST-OH; N-terminus and C-terminus assumed), the negative-log IC50 (pIC50) on HLA-DR2 (DRB1*0201) (setting [2]) is less than 4.15; on HLA-DR4 (DRB*0401) (setting [3]) it was less than 4.15; on HLA-DR3 (DRB*0301) (setting [4]), 4.30. The HLA-DR molecules bound result with HLA-DR 1, 2, 3, 4 and 7 was “bound to DR1, 3 and 7”.

Regarding “E2 61-75: Th epitope peptide, amino acids 61-75 of HPV16 E2 (TLAVSKNKALQAIEL; UniProt P03120 61-75, looked up, fragment)”, the “recognition” value in experiment [1] is reported as “reacted against”.

Take `CC[C@H](C)[C@H](NC(=O)[C@H](CC(=O)O)NC(=O)[C@@H](NC(=O)[C@H](Cc1c[nH]cn1)NC(=O)[C@@H](NC(=O)[C@H](CO)NC(=O)[C@H](CCC(N)=O)NC(=O)[C@@H](NC(=O)[C@H](CS)NC(=O)[C@H](CC(C)C)NC(=O)[C@H](CCCNC(=N)N)NC(=O)[C@H](CC(C)C)NC(=O)[C@@H](NC(=O)[C@H](CO)NC(=O)[C@H](CC(=O)O)NC(=O)[C@@H](N)CS)[C@@H](C)O)C(C)C)[C@@H](C)O)C(C)C)C(=O)N[C@@H](CCCNC(=N)N)C(=O)N[C@H](C(=O)N[C@@H](CC(C)C)C(=O)N[C@@H](CCC(=O)O)C(=O)N[C@@H](CC(=O)O)C(=O)N[C@@H](CC(C)C)C(=O)O)[C@@H](C)O` [E7 61-82] (H-CDSTLRLCVQSTHVDIRTLEDL-OH; N-terminus and C-terminus assumed): the pIC50 on HLA-DR2 (DRB1*0201) (setting [2]) is 4.82; at HLA-DR7 (DRB1*0701) it was less than 4.15; at HLA-DR4 (DRB*0401) (setting [3]), less than 4.15; on HLA-DR3 (DRB*0301) (setting [4]), 4.19; at HLA-DR1 (DRB*0101) (read-out: Binding DR1, IC50) it was less than 4.15.

With “E2 311-325: Th epitope peptide, amino acids 311-325 of HPV16 E2 (LYTAVSSTWHWTGHN)”, the “recognition” value in experiment [1] is “in the context of HLA-DQ6 (1)”.

(Values after patent US9650423B2, “Long peptides of 22-45 amino acid residues that induce and/or enhance antigen specific immune responses” (priority 2000, dated 2017).)
